In patent US4393225A, “AI-77 Compounds and pharmaceutically acceptable salts thereof” (Asahi Kasei Kogyo Kabushiki Kaisha, priority 1979, dated 1983):
Read-outs that look alike come from different tables or passages of the source.

Tested on: ulcer
Experiment: Anti-ulcer test (restraint and water immersion ulcer in rats, i.p.)
Assay type: in vivo, Male Wistar rats
Settings: Rattus norvegicus, ip, read-out: % Inhibition of Ulcer
Summary of the method: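 Male Wistar rats (~150 g), fasted 24 h, dosed i.p. with compound in physiological saline; 1 h later restrained and immersed to xiphisternum in 21 °C water for 6 h. Stomachs examined microscopically, ulcers scored 0–3, and percent inhibition calculated.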

Compound | inhibition in vivo at 50 mg/kg (50 mg/kg i.p.) [%] | inhibition in vivo at 50 mg/kg [%]
C#CC(=O)NC1CC(=O)OC1C(O)C(=O)NC(CC(C)C)C1Cc2cccc(OCC)c2C(=O)O1 (centres unmarked) [IIIa-5-51] | 44 | –
C/C=C/C(=O)NC1CC(=O)OC1C(O)C(=O)NC(CC(C)C)C1Cc2cccc(OCC)c2C(=O)O1 (centres unmarked) [IIIa-5-53] | 33 | –
CCOc1cccc2c1C(=O)OC(C(CC(C)C)NC(=O)C(O)C1OC(=O)CC1NC(=O)CCCCC(C)CC)C2 (centres unmarked) [IIIa-5-55] | 33 | –
CCOc1cccc2c1C(=O)OC(C(CC(C)C)NC(=O)C(O)C1OC(=O)CC1NC(=O)C=Cc1ccoc1)C2 (centres unmarked) [IIIa-5-56] | 44 | –
CCOc1cccc2c1C(=O)OC(C(CC(C)C)NC(=O)C(O)C1OC(=O)CC1NC(=O)Cc1cccnc1)C2 (centres unmarked) [IIIa-5-57] | 33 | –
CCOc1cccc2c1C(=O)OC(C(CC(C)C)NC(=O)C(O)C1OC(=O)CC1NC(=O)C1CCC=CO1)C2 (centres unmarked) [IIIa-5-58] | 44 | –
CCOc1cccc2c1C(=O)OC(C(CC(C)C)NC(=O)C(O)C1OC(=O)CC1NC(=O)c1cocc1C(=O)O)C2 (centres unmarked) [IIIa-5-59] | 44 | –
CCOc1cccc2c1C(=O)OC(C(CC(C)C)NC(=O)C(O)C1OC(=O)CC1NC(=O)C1CCCCCCC1)C2 (centres unmarked) [IIIa-5-60] | 44 | –
CCOc1cccc2c1C(=O)OC(C(CC(C)C)NC(=O)C(O)C1OC(=O)CC1NC(=O)CCC1CCCC1)C2 (centres unmarked) [IIIa-5-61] | 33 | –
CCOc1cccc2c1C(=O)OC(C(CC(C)C)NC(=O)C(O)C1OC(=O)CC1NC(=O)Cc1ccc3ccccc3c1)C2 (centres unmarked) [IIIa-5-62] | 33 | –
CCOc1cccc2c1C(=O)OC(C(CC(C)C)NC(=O)C(O)C1OC(=O)CC1NC(=O)Cc1ccc(C)cc1)C2 (centres unmarked) [IIIa-5-63] | 33 | –
CCOc1cccc2c1C(=O)OC(C(CC(C)C)NC(=O)C(O)C1OC(=O)CC1NC(=O)C1CCC(C(=O)OC)CC1)C2 (centres unmarked) [IIIa-5-66] | 44 | –
CCOc1cccc2c1C(=O)OC(C(CC(C)C)NC(=O)C(O)C1OC(=O)CC1NC(=O)c1ccc(C(C)C)cc1)C2 (centres unmarked) [IIIa-5-67] | 44 | –
CCOc1cccc2c1C(=O)OC(C(CC(C)C)NC(=O)C(O)C1OC(=O)CC1NC(=O)C1CC3C=CC1C3)C2 (centres unmarked) [IIIa-5-69] | 33 | –
CCOc1cccc2c1C(=O)OC(C(CC(C)C)NC(=O)C(O)C1OC(=O)CC1NC(=O)C1CCC(OC)CC1)C2 (centres unmarked) [IIIa-5-71] | 33 | –
CCOc1cccc2c1C(=O)OC(C(CC(C)C)NC(=O)C(O)C1OC(=O)CC1NC(=O)Cn1cnnn1)C2 (centres unmarked) [IIIa-5-72] | 44 | –
CCCCCc1ccc(C(=O)NC2CC(=O)OC2C(O)C(=O)NC(CC(C)C)C2Cc3cccc(OCC)c3C(=O)O2)cc1 (centres unmarked) [IIIa-5-73] | 44 | –
CCCC=Cc1ccc(C(=O)NC2CC(=O)OC2C(O)C(=O)NC(CC(C)C)C2Cc3cccc(OCC)c3C(=O)O2)cc1 (centres unmarked) [IIIa-5-74] | 44 | –
CCOc1cccc2c1C(=O)OC(C(CC(C)C)NC(=O)C(O)C1OC(=O)CC1NC(=O)CCCCCCCCCO)C2 (centres unmarked) [IIIa-5-75] | 33 | –
CCOc1cccc2c1C(=O)OC(C(CC(C)C)NC(=O)C(O)C1OC(=O)CC1NC(=O)CC1CC1)C2 (centres unmarked) [IIIa-5-76] | 33 | –
CCOc1cccc2c1C(=O)OC(C(CC(C)C)NC(=O)C(O)C1OC(=O)CC1NC(=O)C(C)=C(C)Br)C2 (centres unmarked) [IIIa-5-77] | 44 | –

Compound | inhibition in vivo at 50 mg/kg (50 mg/kg i.p.) [%] | inhibition in vivo at 50 mg/kg [%]
CCOc1cccc2c1C(=O)OC(C(CC(C)C)NC(=O)C(O)C1OC(=O)CC1NC(=O)C=C(C)C)C2 (centres unmarked) [IIIa-5-78] | 44 | –
CCCCCc1ccc(COc2cccc3c2C(=O)OC(C(CC(C)C)NC(=O)C(O)C2OC(=O)CC2NC(=O)CCC)C3)cc1 (centres unmarked) [IIIa-5-119] | 33 | –
CCCC=Cc1ccc(COc2cccc3c2C(=O)OC(C(CC(C)C)NC(=O)C(O)C2OC(=O)CC2NC(=O)CCC)C3)cc1 (centres unmarked) [IIIa-5-120] | 33 | –
CCCC(=O)NC1CC(=O)OC1C(O)C(=O)NC(CC(C)C)C1Cc2cccc(OC(C)C)c2C(=O)O1 (centres unmarked) [IIIa-5-121] | 33 | –
CC(C)CC(NC(=O)C(O)C1OC(=O)CC1NC(=O)C(Cl)(Cl)Cl)C1Cc2cccc(OCCCC3CCCC3)c2C(=O)O1 (centres unmarked) [IIIa-5-124] | 33 | –
CCC(=O)COc1cccc2c1C(=O)OC(C(CC(C)C)NC(=O)C(O)C1OC(=O)CC1NC(=O)C(Cl)(Cl)Cl)C2 (centres unmarked) [IIIa-5-125] | 33 | –
CCOc1cccc2c1C(=O)OC(C(CC(C)C)NC(=O)C(OC(=O)C(Cl)(Cl)Cl)C1OC(=O)CC1NC(=O)C(Cl)(Cl)Cl)C2 (centres unmarked) [IIIa-6-1] | 33 | –
CC(=O)NC1CC(=O)OC1C(OC(C)=O)C(=O)NC(CC(C)C)C1Cc2cccc(OCC(C)C)c2C(=O)O1 (centres unmarked) [IIIa-6-2] | 33 | –
CCOc1cccc2c1C(=O)OC(C(CC(C)C)NC(=O)C(OC(C)=O)C1OC(=O)CC1NC(=O)CC(C)C)C2 (centres unmarked) [IIIa-6-3] | 33 | –
CCCCCCCCCCCCCCCCCC(=O)NC1CC(=O)OC1C(OC(C)=O)C(=O)NC(CC(C)C)C1Cc2cccc(OCC)c2C(=O)O1 (centres unmarked) [IIIa-6-4] | 22 | –
CCCCCCCCC=CCCCCCCCC(=O)NC1CC(=O)OC1C(OC(C)=O)C(=O)NC(CC(C)C)C1Cc2cccc(OCC)c2C(=O)O1 (centres unmarked) [IIIa-6-5] | 22 | –
CCCCCCCCCCCCCCCCCCOc1cccc2c1C(=O)OC(C(CC(C)C)NC(=O)C(OC(C)=O)C1OC(=O)CC1NC(=O)C1CCCO1)C2 (centres unmarked) [IIIa-6-6] | 33 | –
CCOc1cccc2c1C(=O)OC(C(CC(C)C)NC(=O)C(OC(C)=O)C1OC(=O)CC1NC(=O)CC(C)OC)C2 (centres unmarked) [IIIa-6-7] | 33 | –
CCOc1cccc2c1C(=O)OC(C(CC(C)C)NC(=O)C(OC(C)=O)C1OC(=O)CC1NC(=O)c1ccc(C)cc1)C2 (centres unmarked) [IIIa-6-8] | 22 | –
CCOc1cccc2c1C(=O)OC(C(CC(C)C)NC(=O)C(OC(C)=O)C1OC(=O)CC1NC(=O)c1ccc(OCCC(C)C)cc1)C2 (centres unmarked) [IIIa-6-9] | 22 | –
CCC(=O)OC(C(=O)NC(CC(C)C)C1Cc2cccc(OCC3CCCCC3)c2C(=O)O1)C1OC(=O)CC1NC(C)=O (centres unmarked) [IIIa-6-10] | 33 | –
CCCC(=O)NC1CC(=O)OC1C(OC(=O)CCC)C(=O)NC(CC(C)C)C1Cc2cccc(OCc3ccco3)c2C(=O)O1 (centres unmarked) [IIIa-6-11] | 33 | –
CCC(=O)OC(C(=O)NC(CC(C)C)C1Cc2cccc(OC)c2C(=O)O1)C1OC(=O)CC1NC(C)=O (centres unmarked) [IIIa-6-12] | 33 | –
CCOc1cccc2c1C(=O)OC(C(CC(C)C)NC(=O)C(OC(=O)CC)C1OC(=O)CC1NC(=O)C(Cl)(Cl)Cl)C2 (centres unmarked) [IIIa-6-13] | 33 | –
CCOc1cccc2c1C(=O)OC(C(CC(C)C)NC(=O)C(OC)C1OC(=O)CC1NC(C)=O)C2 (centres unmarked) [IIIa-7-1] | 33 | –
CCOc1cccc2c1C(=O)OC(C(CC(C)C)NC(=O)C(OCC)C1OC(=O)CC1NC(C)=O)C2 (centres unmarked) [IIIa-7-2] | 33 | –

Compound | inhibition in vivo at 50 mg/kg (50 mg/kg i.p.) [%] | inhibition in vivo at 50 mg/kg [%]
CCOc1cccc2c1C(=O)OC(C(CC(C)C)NC(=O)C(OCC)C1OC(=O)CC1NC(=O)CC(C)C)C2 (centres unmarked) [IIIa-7-3] | 33 | –
CCCCCCCCCCCCCCCCCC(=O)NC1CC(=O)OC1C(OCC)C(=O)NC(CC(C)C)C1Cc2cccc(OCCCCCCC)c2C(=O)O1 (centres unmarked) [IIIa-7-4] | 22 | –
CCCCCCCCC=CCCCCCCCC(=O)NC1CC(=O)OC1C(OCC)C(=O)NC(CC(C)C)C1Cc2cccc(OCC)c2C(=O)O1 (centres unmarked) [IIIa-7-5] | 22 | –
CCOc1cccc2c1C(=O)OC(C(CC(C)C)NC(=O)C(OC)C1OC(=O)CC1NC(=O)C1CCCO1)C2 (centres unmarked) [IIIa-7-6] | 22 | –
CCOc1cccc2c1C(=O)OC(C(CC(C)C)NC(=O)C(OC)C1OC(=O)CC1NC(=O)CC(C)OC)C2 (centres unmarked) [IIIa-7-7] | 33 | –
CCCCOC(C(=O)NC(CC(C)C)C1Cc2cccc(OCC)c2C(=O)O1)C1OC(=O)CC1NC(=O)c1ccc(C)cc1 (centres unmarked) [IIIa-7-8] | 22 | –
CCOc1cccc2c1C(=O)OC(C(CC(C)C)NC(=O)C(OC)C1OC(=O)CC1NC(=O)c1ccc(OCCC(C)C)cc1)C2 (centres unmarked) [IIIa-7-9] | 22 | –
CCCCOC(C(=O)NC(CC(C)C)C1Cc2cccc(OC)c2C(=O)O1)C1OC(=O)CC1NC(=O)CCC (centres unmarked) [IIIa-7-10] | 33 | –
CCCC(=O)NC1CC(=O)OC1C(OC(C)C)C(=O)NC(CC(C)C)C1Cc2cccc(OCc3ccccc3)c2C(=O)O1 (centres unmarked) [IIIa-7-11] | 33 | –
CCCC(=O)NC1CC(=O)OC1C(OC(C)C)C(=O)NC(CC(C)C)C1Cc2cccc(OCC3CCCCC3)c2C(=O)O1 (centres unmarked) [IIIa-7-12] | 33 | –
CCCC(=O)NC1CC(=O)OC1C(OC)C(=O)NC(CC(C)C)C1Cc2cccc(OCc3ccc4ccccc4c3)c2C(=O)O1 (centres unmarked) [IIIa-7-13] | 33 | –
CCCC(=O)NC1CC(=O)OC1C(OC)C(=O)NC(CC(C)C)C1Cc2cccc(OCC3CCCCO3)c2C(=O)O1 (centres unmarked) [IIIa-7-14] | 33 | –
CCCCCC(=O)OC(C)CCOc1cccc2c1C(=O)OC(C(CC(C)C)NC(=O)C(OC)C1OC(=O)CC1NC(=O)CCC)C2 (centres unmarked) [IIIa-7-15] | 33 | –
CCCCOc1cccc2c1C(=O)OC(C(CC(C)C)NC(=O)C(OC)C1OC(=O)CC1NC(C)=O)C2 (centres unmarked) [IIIa-7-16] | 33 | –
CCCOC(C(=O)NC(CC(C)C)C1Cc2cccc(OCC)c2C(=O)O1)C1OC(=O)CC1NC(=O)C(Cl)(Cl)Cl (centres unmarked) [IIIa-7-17] | 33 | –
CCCCOC(C(=O)NC(CC(C)C)C1Cc2cccc(O)c2C(=O)O1)C1OC(=O)CC1NC(C)=O (centres unmarked) [IIIa-8-1] | 56 | –
CC(C)CC(NC(=O)C(OC(=O)C(Cl)(Cl)Cl)C1OC(=O)CC1N)C1Cc2cccc(OC(=O)C(Cl)(Cl)Cl)c2C(=O)O1 (centres unmarked) [IIIa-11-4] | – | 56
CCCCCCCCC=CCCCCCCCC(=O)OC(C(=O)NC(CC(C)C)C1Cc2cccc(OC(=O)CC)c2C(=O)O1)C1OC(=O)CC1N (centres unmarked) [IIIa-11-5] | 44 | –
CCCC(=O)Oc1cccc2c1C(=O)OC(C(CC(C)C)NC(=O)C(OC(C)=O)C1OC(=O)CC1N)C2 (centres unmarked) [IIIa-11-6] | 56 | –
CC(=O)Oc1cccc2c1C(=O)OC(C(CC(C)C)NC(=O)C(O)C1OC(=O)CC1N)C2 (centres unmarked) [IIIa-12-1] | 78 | –
